Some results are limits rather than exact numbers.

In this experiment the target is T1, CXCR3 (Homo sapiens, UniProt P49682).
T1 construct: host or cells: CHO-K1 (cAMP Hunter CHOK1 CXCR3 Gi cell line)
T1 sequence (P49682 1-368): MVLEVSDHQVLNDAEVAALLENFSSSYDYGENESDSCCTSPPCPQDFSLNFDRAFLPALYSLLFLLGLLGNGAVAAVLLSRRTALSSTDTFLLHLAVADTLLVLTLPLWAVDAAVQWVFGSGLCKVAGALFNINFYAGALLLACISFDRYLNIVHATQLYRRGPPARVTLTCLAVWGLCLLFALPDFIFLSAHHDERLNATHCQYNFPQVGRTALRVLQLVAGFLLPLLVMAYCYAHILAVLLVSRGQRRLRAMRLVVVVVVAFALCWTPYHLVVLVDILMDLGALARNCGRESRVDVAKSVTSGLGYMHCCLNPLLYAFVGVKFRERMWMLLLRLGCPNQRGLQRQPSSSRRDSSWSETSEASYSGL
The experiment in a line: CXCR3 cAMP agonist assay (cAMP Hunter CHOK1 CXCR3 Gi cell line, forskolin-stimulated, HitHunter cAMP detection). In kind it is cell-based. Particulars: cAMP Hunter CHOK1 CXCR3 Gi cells, 20 μM forskolin, 30 minutes; read-out: Activity (CXCR3 cAMP agonist assay compound EC50). An outline of the steps:
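Agonist activity was measured as suppression of forskolin (20 μM)-induced cAMP, read by luminescent enzyme-fragment complementation with a cAMP standard curve and CXCL11 defining full efficacy. Assay used 50,000 CXCR3 Gi CHOK1 cells/well in pH 7.4 HEPES-buffered HBSS with 0.1% BSA, compound 0-10 μM over 12 points, 30 min incubation.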
Regarding `Cc1cc(NC(=O)[C@H](CCN)NC(=O)[C@@H]2Cc3ccccc3CN2C(=O)CCC(=O)N2C[C@@H](C)O[C@@H](C)C2)ccc1Cl` [Compound 12-1, (S)—N—((S)-4-amino-1-((4-chloro-3-methylphenyl)amino)-1-oxobutan-2-yl)-2-(4-((2R,6S)-2,6-dimethylmorpholino)-4-oxobutanoyl)-1,2,3,4-tetrahydroisoquinoline-3-carboxamide], the EC50 (as a rule, the concentration giving half of the maximal effect) fell in the range of 50 to 250 nM. As for `Cc1cc(NC(=O)[C@H](CCN)NC(=O)[C@@H]2Cc3ccccc3CN2C(=O)CCC(=O)NCCC(C)(C)C)ccc1Cl` [Compound 12-2], the EC50 is below 50 nM.

Regarding `Cc1cc(NC(=O)[C@H](CCN)NC(=O)[C@@H]2Cc3ccccc3CN2C(=O)CCC(=O)NCC2CCCCC2)ccc1Cl` [Compound 12-3], the EC50 was 50 to 250 nM. For `Cc1cc(NC(=O)[C@H](CCN)NC(=O)[C@@H]2Cc3ccccc3CN2C(=O)CCC(=O)N2CCC(F)(F)CC2)ccc1Cl` [Compound 12-4], the concentration for a half-maximal effect (EC50) is below 50 nM. As to `Cc1cc(NC(=O)[C@H](CCN)NC(=O)[C@@H]2Cc3ccccc3CN2C(=O)CCC(=O)N2CCCC2)ccc1Cl` [Compound 12-5], the concentration for a half-maximal effect (EC50) is below 50 nM. As for `Cc1cc(NC(=O)[C@H](CCN)NC(=O)[C@@H]2Cc3ccccc3CN2C(=O)CCC(=O)N2CCC(O)CC2)ccc1Cl` [Compound 12-6], the 50% effective concentration (EC50) was in the range of 50 to 250 nM. On to `Cc1cc(NC(=O)[C@H](CCN)NC(=O)[C@@H]2Cc3ccccc3CN2C(=O)CCC(=O)N2CC3(CCCCC3)C2)ccc1Cl` [Compound 12-7], for which the EC50 is below 50 nM.

With `Cc1cc(NC(=O)[C@H](CCN)NC(=O)[C@@H]2Cc3ccccc3CN2C(=O)CCC(=O)N2CCC(F)(F)C2)ccc1Cl` [Compound 12-8], the 50% effective concentration (EC50) lay within 50 to 250 nM.

As for `Cc1cc(NC(=O)[C@H](CCN)NC(=O)[C@@H]2Cc3ccccc3CN2C(=O)CCC(=O)N2CC3(COC3)C2)ccc1Cl` [Compound 12-9], the concentration giving a half-maximal response (EC50) was above 500 nM. The value for `Cc1cc(NC(=O)[C@H](CCN)NC(=O)[C@@H]2Cc3ccccc3CN2C(=O)CCC(=O)NCC2CCCC2)ccc1Cl` [Compound 12-10] was 50 to 250 nM.

Consider `Cc1cc(NC(=O)[C@H](CCN)NC(=O)[C@@H]2Cc3ccccc3CN2C(=O)CCC(=O)N2CC(C)(c3ccccc3)C2)ccc1Cl` [Compound 12-11], for which the EC50 was below 50 nM. As to `Cc1cc(NC(=O)[C@H](CCN)NC(=O)[C@@H]2Cc3ccccc3CN2C(=O)CCC(=O)NCC2CCOCC2)ccc1Cl` [Compound 12-12], the EC50 is above 500 nM. With `Cc1cc(NC(=O)[C@H](CCN)NC(=O)[C@@H]2Cc3ccccc3CN2C(=O)CCC(=O)N2CCCCCC2)ccc1Cl` [Compound 12-13], the EC50 was below 50 nM.

As to `CCN(CC)C(=O)CCC(=O)N1Cc2ccccc2C[C@H]1C(=O)N[C@@H](CCN)C(=O)Nc1ccc(Cl)c(C)c1` [Compound 12-14], the EC50 lay in the range of 50 to 250 nM. In the case of `Cc1cc(NC(=O)[C@H](CCN)NC(=O)[C@@H]2Cc3ccccc3CN2C(=O)CCC(=O)N2CCN(S(C)(=O)=O)CC2)ccc1Cl` [Compound 12-15], the concentration for a half-maximal effect (EC50) lay within 50 to 250 nM. Consider `Cc1cc(NC(=O)[C@H](CCN)NC(=O)[C@@H]2Cc3ccccc3CN2C(=O)CCC(=O)N(C)Cc2ccccc2)ccc1Cl` [Compound 12-16], for which the EC50 was above 500 nM.

Consider `Cc1cc(NC(=O)[C@H](CCN)NC(=O)[C@@H]2Cc3ccccc3CN2C(=O)CCC(=O)N2CCS(=O)(=O)CC2)ccc1Cl` [Compound 12-17], for which the EC50 is 50 to 250 nM. As to `Cc1cc(NC(=O)[C@H](CCN)NC(=O)[C@@H]2Cc3ccccc3CN2C(=O)CCC(=O)NCc2ccccc2)ccc1Cl` [Compound 12-18], the EC50 is above 500 nM. `Cc1cc(NC(=O)[C@H](CCN)NC(=O)[C@@H]2Cc3ccccc3CN2C(=O)CCC(=O)N2CC(F)C2)ccc1Cl` [Compound 12-19]: the half-maximal effective concentration (EC50) fell in the range of 250 to 500 nM. On to `Cc1cc(NC(=O)[C@H](CCN)NC(=O)[C@@H]2Cc3ccccc3CN2C(=O)CCC(=O)N2CCCOCC2)ccc1Cl` [Compound 12-20], for which the concentration giving a half-maximal response (EC50) is below 50 nM.

For the molecule `Cc1cc(NC(=O)[C@@H](CCN)NC(=O)[C@@H]2Cc3ccccc3CN2C(=O)CCC(=O)N2CCCOCC2)ccc1Cl` [Compound 12-21], the EC50 is below 50 nM.

On to `Cc1cc(NC(=O)[C@H](CCN)NC(=O)[C@@H]2Cc3ccccc3CN2C(=O)CCC(=O)N2CC(C(C)(C)O)C2)ccc1Cl` [Compound 12-22], for which the EC50 was below 50 nM. As to `Cc1cc(NC(=O)[C@H](CCN)NC(=O)[C@@H]2Cc3ccccc3CN2C(=O)CCC(=O)N2CCOCC2(C)C)ccc1Cl` [Compound 12-23], the EC50 is below 50 nM. For `Cc1cc(NC(=O)[C@H](CCN)NC(=O)[C@@H]2Cc3ccccc3CN2C(=O)CCC(=O)N2CC3(CCOCC3)C2)ccc1Cl` [Compound 12-24], the EC50 was in the range of 250 to 500 nM. The value for `Cc1cc(NC(=O)[C@H](CCN)NC(=O)[C@@H]2Cc3ccccc3CN2C(=O)CCC(=O)N2CCCC[C@H]2C)ccc1Cl` [Compound 12-25] was below 50 nM; that for `Cc1cc(NC(=O)[C@H](CCN)NC(=O)[C@@H]2Cc3ccccc3CN2C(=O)CCC(=O)N2CCCCC2(C)C)ccc1Cl` [Compound 12-26] was below 50 nM; that for `Cc1cc(NC(=O)[C@H](CCN)NC(=O)[C@@H]2Cc3ccccc3CN2C(=O)CCC(=O)N2CCOC[C@@H]2C)ccc1Cl` [Compound 12-27] was 50 to 250 nM. In the case of `Cc1cc(NC(=O)[C@H](CCN)NC(=O)[C@@H]2Cc3ccccc3CN2C(=O)CCC(=O)N2CCC(C)(C)CC2)ccc1Cl` [Compound 12-28], the 50% effective concentration (EC50) was below 50 nM. The value for `Cc1cc(NC(=O)[C@H](CCN)NC(=O)[C@@H]2Cc3ccccc3CN2C(=O)CCC(=O)N2CCC(C)(C)C2)ccc1Cl` [Compound 12-29] was below 50 nM. Take `Cc1cc(NC(=O)[C@H](CCN)NC(=O)[C@@H]2Cc3ccccc3CN2C(=O)CCC(=O)N2CCC2)ccc1Cl` [Compound 12-30]: the half-maximal effective concentration (EC50) was in the range of 50 to 250 nM. For the molecule `Cc1cc(NC(=O)[C@H](CCN)NC(=O)[C@@H]2Cc3ccccc3CN2C(=O)CCC(=O)N2CCCC2(C)C)ccc1Cl` [Compound 12-31], the EC50 was below 50 nM.

On to `Cc1cc(NC(=O)[C@H](CCN)NC(=O)[C@@H]2Cc3ccccc3CN2C(=O)CCC(=O)N2CC3CCC2C3)ccc1Cl` (stereo partly shown) [Compound 12-32], for which the concentration giving a half-maximal response (EC50) was below 50 nM. `Cc1cc(NC(=O)[C@H](CCN)NC(=O)[C@@H]2Cc3ccccc3CN2C(=O)CCC(=O)N2CCN(C3CC3)CC2)ccc1Cl` [Compound 12-33]: the EC50 was 50 to 250 nM. Regarding `Cc1cc(NC(=O)[C@H](CCN)NC(=O)[C@@H]2Cc3ccccc3CN2C(=O)CCC(=O)N2CCCN(C)CC2)ccc1Cl` [Compound 12-34], the EC50 was in the range of 50 to 250 nM. `Cc1cc(NC(=O)[C@H](CCN)NC(=O)[C@@H]2Cc3ccccc3CN2C(=O)CCC(=O)N2CCN(C)[C@H](C)C2)ccc1Cl` [Compound 12-35]: the EC50 was below 50 nM. For `Cc1cc(NC(=O)[C@H](CCN)NC(=O)[C@@H]2Cc3ccccc3CN2C(=O)CCC(=O)N2CCN(C)[C@@H](C)C2)ccc1Cl` [Compound 12-36], the EC50 was below 50 nM.

`Cc1cc(NC(=O)[C@H](CCN)NC(=O)[C@@H]2Cc3ccccc3CN2C(=O)CCC(=O)N2CCN(C)C(=O)C2)ccc1Cl` [Compound 12-37]: the concentration for a half-maximal effect (EC50) is 50 to 250 nM. As for `Cc1cc(NC(=O)[C@H](CCN)NC(=O)[C@@H]2Cc3ccccc3CN2C(=O)CCC(=O)N2CC(Cc3ccccc3)C2)ccc1Cl` [Compound 12-38], the concentration for a half-maximal effect (EC50) was in the range of 250 to 500 nM. The value for `Cc1cc(NC(=O)[C@H](CCN)NC(=O)[C@@H]2Cc3ccccc3CN2C(=O)CCC(=O)N2C[C@H](C)C[C@H](C)C2)ccc1Cl` [Compound 12-39] was below 50 nM; that for `Cc1cc(NC(=O)[C@H](CCN)NC(=O)[C@@H]2Cc3ccccc3CN2C(=O)CCC(=O)N2CC(C(C)(C)C)C2)ccc1Cl` [Compound 12-40] was below 50 nM; that for `Cc1cc(NC(=O)[C@H](CCN)NC(=O)[C@@H]2Cc3ccccc3CN2C(=O)CCC(=O)N2C(C)CCCC2C)ccc1Cl` (stereo partly shown) [Compound 12-41] was below 50 nM. The value for `COC1CCN(C(=O)CCC(=O)N2Cc3ccccc3C[C@H]2C(=O)N[C@@H](CCN)C(=O)Nc2ccc(Cl)c(C)c2)CC1` [Compound 12-42] was below 50 nM. As for `Cc1cc(NC(=O)[C@H](CCN)NC(=O)[C@@H]2Cc3ccccc3CN2C(=O)CCC(=O)N2[C@H](C)CCC[C@@H]2C)ccc1Cl` [Compound 12-43], the EC50 was below 50 nM. For `Cc1cc(NC(=O)[C@H](CCN)NC(=O)[C@@H]2Cc3ccccc3CN2C(=O)CCC(=O)N2CCC(C#N)CC2)ccc1Cl` [Compound 12-44], the concentration for a half-maximal effect (EC50) was below 50 nM. On to `Cc1cc(NC(=O)[C@H](CCN)NC(=O)[C@@H]2Cc3ccccc3CN2C(=O)CCC(=O)N2CCC[C@@H]2C)ccc1Cl` [Compound 12-45], for which the EC50 was below 50 nM. For the molecule `Cc1cc(NC(=O)[C@H](CCN)NC(=O)[C@@H]2Cc3ccccc3CN2C(=O)CCC(=O)N2CCC[C@H]2C)ccc1Cl` [Compound 12-46], the EC50 is below 50 nM. For `Cc1cc(NC(=O)[C@H](CCN)NC(=O)[C@@H]2Cc3ccccc3CN2C(=O)CCC(=O)N2C(C)CCC2C)ccc1Cl` (stereo partly shown) [Compound 12-47], the concentration giving a half-maximal response (EC50) is below 50 nM.

Consider `Cc1cc(NC(=O)[C@H](CCN)NC(=O)[C@@H]2Cc3ccccc3CN2C(=O)CCC(=O)N2CCC(O)C2)ccc1Cl` (stereo partly shown) [Compound 12-48], for which the EC50 is 50 to 250 nM. The value for `Cc1cc(NC(=O)[C@H](CCN)NC(=O)[C@@H]2Cc3ccccc3CN2C(=O)CCC(=O)N2CC[C@H](N(C)C)C2)ccc1Cl` [Compound 12-49] was below 50 nM.

The values above are taken from patent publication US11040954B1, “CXCR3 receptor agonists” (RECEPTOS LLC, priority 2016, dated 2021).
